Assays:
[1] = system: human ventricular trabeculae; assay: Action potential recording and pro-arrhythmic score analysis in human ventricular trabeculae (hVT);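 note: sharp microelectrode action potential recordings at 37°C in Tyrode-perfused trabeculae, 4 cumulative concentrations each applied 31 min, values averaged over last 30 APs, vehicle 0.1% DMSO as control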
[2] = human free (unbound) effective therapeutic plasma concentration used to calculate multiples; cited from earlier work
[3] = 1Hz, 0.1-FOLD free ETPC (0.003µM)
[4] = 1Hz, 1-FOLD free ETPC (0.003µM)
[5] = 1Hz, 10-FOLD free ETPC (0.003µM)
[6] = 1Hz, 100-FOLD free ETPC (0.003µM)
[7] = 2Hz, 0.1-FOLD free ETPC (0.003µM)
[8] = 2Hz, 1-FOLD free ETPC (0.003µM)
[9] = 2Hz, 10-FOLD free ETPC (0.003µM)
[10] = 2Hz, 100-FOLD free ETPC (0.003µM)

COc1cc(N)c(Cl)cc1C(=O)NC1CCN(CCCOc2ccc(F)cc2)CC1OC (stereo not shown) [CISAPRIDE, Cisapride]
AMAX [1, 3]: 111
AMAX percentage change compared to vehicle control [1, 3]: -2%
APD30 [1, 3]: 153
APD30 percentage change compared to vehicle control [1, 3]: -14%
APD50 [1, 3]: 205
APD50 percentage change compared to vehicle control [1, 3]: -13%
APD90 [1, 3]: 281
APD90 percentage change compared to vehicle control [1, 3]: -10%
Alternans [1, 3]: 0.75
Alternans percentage change compared to vehicle control [1, 3]: 14%
Beat Escape [1, 3]: 0
Beat Escape percentage change compared to vehicle control [1, 3]: 0%
EADs [1, 3]: 0
EADs percentage change compared to vehicle control [1, 3]: 0%
ERP [1, 3]: 0.45
ERP percentage change compared to vehicle control [1, 3]: 3%
Max Dispersion [1, 3]: 3.28
Max Dispersion percentage change compared to vehicle control [1, 3]: 11%
RMP [1, 3]: -94
RMP percentage change compared to vehicle control [1, 3]: -1%
Refractoriness Escape [1, 3]: 0
Refractoriness Escape percentage change compared to vehicle control [1, 3]: 0%
STV [1, 3]: 0.54
STV percentage change compared to vehicle control [1, 3]: 22%
Triangulation [1, 3]: 127
Triangulation percentage change compared to vehicle control [1, 3]: -3%
AMAX [1, 4]: 111
AMAX percentage change compared to vehicle control [1, 4]: -2%
APD30 [1, 4]: 161
APD30 percentage change compared to vehicle control [1, 4]: -11%
APD50 [1, 4]: 213
APD50 percentage change compared to vehicle control [1, 4]: -10%
APD90 [1, 4]: 286
APD90 percentage change compared to vehicle control [1, 4]: -9%
Alternans [1, 4]: 0.76
Alternans percentage change compared to vehicle control [1, 4]: 16%
Beat Escape [1, 4]: 0
Beat Escape percentage change compared to vehicle control [1, 4]: 0%
EADs [1, 4]: 0
EADs percentage change compared to vehicle control [1, 4]: 0%
ERP [1, 4]: 0.44
ERP percentage change compared to vehicle control [1, 4]: 1%
Max Dispersion [1, 4]: 3.20
Max Dispersion percentage change compared to vehicle control [1, 4]: 8%
RMP [1, 4]: -96
RMP percentage change compared to vehicle control [1, 4]: 0%
Refractoriness Escape [1, 4]: 0
Refractoriness Escape percentage change compared to vehicle control [1, 4]: 0%
STV [1, 4]: 0.57
STV percentage change compared to vehicle control [1, 4]: 42%
Triangulation [1, 4]: 124
Triangulation percentage change compared to vehicle control [1, 4]: -5%
AMAX [1, 5]: 111
AMAX percentage change compared to vehicle control [1, 5]: -1%
APD30 [1, 5]: 148
APD30 percentage change compared to vehicle control [1, 5]: -17%
APD50 [1, 5]: 206
APD50 percentage change compared to vehicle control [1, 5]: -13%
APD90 [1, 5]: 285
APD90 percentage change compared to vehicle control [1, 5]: -8%
Alternans [1, 5]: 0.37
Alternans percentage change compared to vehicle control [1, 5]: -44%
Beat Escape [1, 5]: 0
Beat Escape percentage change compared to vehicle control [1, 5]: 0%
EADs [1, 5]: 0
EADs percentage change compared to vehicle control [1, 5]: 0%
ERP [1, 5]: 0.48
ERP percentage change compared to vehicle control [1, 5]: 11%
Max Dispersion [1, 5]: 2.73
Max Dispersion percentage change compared to vehicle control [1, 5]: -8%
RMP [1, 5]: -99
RMP percentage change compared to vehicle control [1, 5]: 4%
Refractoriness Escape [1, 5]: 0
Refractoriness Escape percentage change compared to vehicle control [1, 5]: 0%
STV [1, 5]: 0.27
STV percentage change compared to vehicle control [1, 5]: -31%
Triangulation [1, 5]: 137
Triangulation percentage change compared to vehicle control [1, 5]: 4%
AMAX [1, 6]: 116
AMAX percentage change compared to vehicle control [1, 6]: 3%
APD30 [1, 6]: 158
APD30 percentage change compared to vehicle control [1, 6]: -12%
APD50 [1, 6]: 224
APD50 percentage change compared to vehicle control [1, 6]: -6%
APD90 [1, 6]: 312
APD90 percentage change compared to vehicle control [1, 6]: 0%
Alternans [1, 6]: 0.54
Alternans percentage change compared to vehicle control [1, 6]: -17%
Beat Escape [1, 6]: 0
Beat Escape percentage change compared to vehicle control [1, 6]: 0%
EADs [1, 6]: 0
EADs percentage change compared to vehicle control [1, 6]: 0%
ERP [1, 6]: 0.49
ERP percentage change compared to vehicle control [1, 6]: 14%
Max Dispersion [1, 6]: 2.75
Max Dispersion percentage change compared to vehicle control [1, 6]: -7%
RMP [1, 6]: -102
RMP percentage change compared to vehicle control [1, 6]: 7%
Refractoriness Escape [1, 6]: 0
Refractoriness Escape percentage change compared to vehicle control [1, 6]: 0%
STV [1, 6]: 0.37
STV percentage change compared to vehicle control [1, 6]: 3%
Triangulation [1, 6]: 154
Triangulation percentage change compared to vehicle control [1, 6]: 17%
AMAX [1, 7]: 110
AMAX percentage change compared to vehicle control [1, 7]: -2%
APD30 [1, 7]: 114
APD30 percentage change compared to vehicle control [1, 7]: -10%
APD50 [1, 7]: 157
APD50 percentage change compared to vehicle control [1, 7]: -8%
APD90 [1, 7]: 228
APD90 percentage change compared to vehicle control [1, 7]: -6%
Alternans [1, 7]: 0.98
Alternans percentage change compared to vehicle control [1, 7]: 18%
Beat Escape [1, 7]: 0
Beat Escape percentage change compared to vehicle control [1, 7]: 0%
EADs [1, 7]: 0
EADs percentage change compared to vehicle control [1, 7]: 0%
ERP [1, 7]: 0.47
ERP percentage change compared to vehicle control [1, 7]: 1%
Max Dispersion [1, 7]: 4.08
Max Dispersion percentage change compared to vehicle control [1, 7]: 3%
RMP [1, 7]: -94
RMP percentage change compared to vehicle control [1, 7]: 0%
Refractoriness Escape [1, 7]: 0
Refractoriness Escape percentage change compared to vehicle control [1, 7]: 0%
STV [1, 7]: 0.76
Triangulation [1, 7]: 114
Triangulation percentage change compared to vehicle control [1, 7]: -2%
AMAX [1, 8]: 109
AMAX percentage change compared to vehicle control [1, 8]: -3%
APD30 [1, 8]: 115
APD30 percentage change compared to vehicle control [1, 8]: -10%
APD50 [1, 8]: 156
APD50 percentage change compared to vehicle control [1, 8]: -10%
APD90 [1, 8]: 225
APD90 percentage change compared to vehicle control [1, 8]: -8%
Alternans [1, 8]: 0.99
Alternans percentage change compared to vehicle control [1, 8]: 20%
Beat Escape [1, 8]: 0
Beat Escape percentage change compared to vehicle control [1, 8]: 0%
EADs [1, 8]: 0
EADs percentage change compared to vehicle control [1, 8]: 0%
ERP [1, 8]: 0.46
ERP percentage change compared to vehicle control [1, 8]: 1%
Max Dispersion [1, 8]: 4.38
Max Dispersion percentage change compared to vehicle control [1, 8]: 10%
RMP [1, 8]: -94
RMP percentage change compared to vehicle control [1, 8]: 0%
Refractoriness Escape [1, 8]: 0
Refractoriness Escape percentage change compared to vehicle control [1, 8]: 0%
STV [1, 8]: 0.66
Triangulation [1, 8]: 110
Triangulation percentage change compared to vehicle control [1, 8]: -6%
AMAX [1, 9]: 114
AMAX percentage change compared to vehicle control [1, 9]: 1%
APD30 [1, 9]: 110
APD30 percentage change compared to vehicle control [1, 9]: -13%
APD50 [1, 9]: 157
APD50 percentage change compared to vehicle control [1, 9]: -9%
APD90 [1, 9]: 231
APD90 percentage change compared to vehicle control [1, 9]: -5%
Alternans [1, 9]: 0.63
Alternans percentage change compared to vehicle control [1, 9]: -24%
Beat Escape [1, 9]: 0
Beat Escape percentage change compared to vehicle control [1, 9]: 0%
EADs [1, 9]: 0
EADs percentage change compared to vehicle control [1, 9]: 0%
ERP [1, 9]: 0.50
ERP percentage change compared to vehicle control [1, 9]: 10%
Max Dispersion [1, 9]: 2.55
Max Dispersion percentage change compared to vehicle control [1, 9]: -36%
RMP [1, 9]: -100
RMP percentage change compared to vehicle control [1, 9]: 6%
Refractoriness Escape [1, 9]: 0
Refractoriness Escape percentage change compared to vehicle control [1, 9]: 0%
STV [1, 9]: 0.45
Triangulation [1, 9]: 122
Triangulation percentage change compared to vehicle control [1, 9]: 4%
AMAX [1, 10]: 114
AMAX percentage change compared to vehicle control [1, 10]: 2%
APD30 [1, 10]: 114
APD30 percentage change compared to vehicle control [1, 10]: -10%
APD50 [1, 10]: 168
APD50 percentage change compared to vehicle control [1, 10]: -3%
APD90 [1, 10]: 254
APD90 percentage change compared to vehicle control [1, 10]: 4%
Alternans [1, 10]: 0.75
Alternans percentage change compared to vehicle control [1, 10]: -9%
Beat Escape [1, 10]: 0
Beat Escape percentage change compared to vehicle control [1, 10]: 0%
EADs [1, 10]: 0
EADs percentage change compared to vehicle control [1, 10]: 0%
ERP [1, 10]: 0.52
ERP percentage change compared to vehicle control [1, 10]: 13%
Max Dispersion [1, 10]: 3.75
Max Dispersion percentage change compared to vehicle control [1, 10]: -6%
RMP [1, 10]: -101
RMP percentage change compared to vehicle control [1, 10]: 7%
Refractoriness Escape [1, 10]: 0
Refractoriness Escape percentage change compared to vehicle control [1, 10]: 0%
STV [1, 10]: 0.56
Triangulation [1, 10]: 140
Triangulation percentage change compared to vehicle control [1, 10]: 20%
Free ETPC [2]: 0.003 µM

From publication PMC5760531, “Action Potential Recording and Pro-arrhythmia Risk Analysis in Human Ventricular Trabeculae” (Frontiers in Physiology, 2018)
